Laboratory results reported in patent publication US20170121646A1, “Improved Stabilization of Non-Protease Enzyme” (Novozymes A/S, priority 2014, published 2017).

Columns and labels:
Assay type in all cases: biochemical
Savinase [1] = biological target: T1, Savinase (Lederbergia lenta, UniProt P29600); assay: Storage stability in Detergent M, residual protease activity after 1 week at 40° C.; conditions: for Residual activity at dose 1 / Residual activity at dose 2 / Inhibitor dose 1: 1 week 40° C. vs −18° C. reference; for Inhibitor dose 1: dose 1 = concentration C found by interpolation; for ((residual activity at dose 2) − (residual activity at dose 1))/((residual activity at dose 1) − (residual activity at no inhibitor)): criterion that defines dose 1; for Inhibitor dose 2: dose 2 = 2×dose 1
T1 sequence (P29600 1-269): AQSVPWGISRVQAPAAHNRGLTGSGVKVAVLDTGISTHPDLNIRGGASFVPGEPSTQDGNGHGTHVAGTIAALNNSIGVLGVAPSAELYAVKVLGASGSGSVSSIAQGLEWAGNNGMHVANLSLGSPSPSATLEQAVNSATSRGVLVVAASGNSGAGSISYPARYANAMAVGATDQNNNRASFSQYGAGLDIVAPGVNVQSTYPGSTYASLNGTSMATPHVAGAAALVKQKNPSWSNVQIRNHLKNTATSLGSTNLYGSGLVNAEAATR
Source text: An inhibitor concentration C is defined, so that when the inhibitor concentration is doubled from a concentration of C to a concentration of 2C (i.e., 2C=2×C), the residual protease activity increases (“residual protease activity at 2C”−“residual protease activity at C”) by 25% of the residual protease activity increase from no inhibitor to C (“residual protease activity at C”−“residual activity at no inhibitor”). “No inhibitor” means that the concentration of inhibitor is zero.
The test system to determine “dose 1” (C) and “dose 2” (2C) is described in Example 1. A model detergent system is used (detergent A) and protease, lipase, and different concentrations of protease inhibitor are added (detergent M). Residual protease activity is determined by comparing activity after storage for 1 week at 40° C. with 1 week at −18° C. The data are used to prepare a dose response curve which is used to identify the inhibitor concentration C.
Various peptide aldehydes were produced by a custom peptide synthesis company, all with a purity>80%. The peptide aldehydes were dissolved in DMSO to a concentration of 10 mg/mL before use.
Further the following detergents with protease inhibitors were prepared. The detergents were placed in closed glasses at 40° C. Residual activity of protease was measured (by comparison to a reference stored at −18° C.) after 1 week, using standard enzyme analytical methods (protease measured by hydrolysis of N,N-dimethylcasein at 40° C., pH 8.3). The inhibitor levels tested relative to protease were in the range 0.5-500 molar ratio (inhibitor:protease). The data points were connected and the inhibitor dose 1 and dose 2 were determined by interpolation so that ((residual protease activity at dose 2)−(residual protease activity at dose 1))/((residual protease activity at dose 1)−(residual protease activity at no inhibitor))=0.25; and dose 2=2×dose 1.

Savinase [2] = biological target: T1, Savinase; assay: Storage stability in Detergent C, residual protease activity after 4 weeks at 30° C.; conditions: Detergent C with Savinase; for %-points per dose (residual protease activity): increase from dose 1 to dose 2
Experimental: (§1) Further the following detergents with protease inhibitors were prepared. The detergents were placed in closed glasses at 30° C. Residual activity of lipase and protease was measured (by comparison to a reference stored at −18° C.) after 4 weeks, using standard enzyme analytical methods (protease measured by hydrolysis of N,N-dimethylcasein at 40° C., pH 8.3 and lipase measured by hydrolysis of p-nitrophenyl valerate at 40° C., pH 7.7). Z-GA-NHCH(CH2C6H4OH)CH(OH)SO3Na was added in a concentration of 8.1 mg/L (dose 1) and 16.1 mg/L (dose 2). 4-FPBA was added in a concentration of 80 mg/L (dose 1) and 160 mg/L (dose 2).

Lipase (Lipex 100L) [3] = assay: Storage stability in Detergent C with Savinase, residual lipase activity after 4 weeks at 30° C.; conditions: increase from dose 1 to dose 2
Experimental: as §1

Protease (Savinase 16L) = biological target: T2, Protease (Savinase 16L) (Lederbergia lenta, UniProt P29600); assay: Storage stability in Detergent B, residual protease activity after 4 weeks at 30° C.; conditions: increase from dose 1 (12.9 mg/L) to dose 2 (26.0 mg/L)
T2 sequence (P29600 1-269): T1 sequence (P29600 1-269)
Experimental: as §1, with “12.9” for “8.1”, “26.0” for “16.1”, “2).” for “2). 4-FPBA was added in a concentration of 80 mg/L (dose 1) and 160 mg/L (dose 2).”

Lipase (Lipex 100L) [4] = assay: Storage stability in Detergent B (with Savinase), residual lipase activity after 4 weeks at 30° C.; conditions: increase from dose 1 (12.9 mg/L) to dose 2 (26.0 mg/L)
Experimental: as §1, with “12.9” for “8.1”, “26.0” for “16.1”, “2).” for “2). 4-FPBA was added in a concentration of 80 mg/L (dose 1) and 160 mg/L (dose 2).”
Target sequence in this assay (O59952 23-291 T253R/N255R): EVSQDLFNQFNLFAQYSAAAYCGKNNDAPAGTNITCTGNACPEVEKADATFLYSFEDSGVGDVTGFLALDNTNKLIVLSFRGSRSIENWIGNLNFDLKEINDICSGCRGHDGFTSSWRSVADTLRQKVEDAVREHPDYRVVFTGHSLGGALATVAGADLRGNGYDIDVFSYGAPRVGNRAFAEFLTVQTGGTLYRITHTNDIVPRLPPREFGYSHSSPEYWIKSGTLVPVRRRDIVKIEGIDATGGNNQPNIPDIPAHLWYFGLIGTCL

Liquanase = assay: Storage stability in Detergent C, residual protease activity after 4 weeks at 30° C.; conditions: Detergent C with Liquanase; increase from dose 1 to dose 2
Experimental: as §1

Lipase (Lipex 100L) [5] = assay: Storage stability in Detergent C with Liquanase, residual lipase activity after 4 weeks at 30° C.; conditions: increase from dose 1 to dose 2
Experimental: as §1
Target sequence in this assay (O59952 23-291 T253R/N255R): as above

Molecule | Residual activity at dose 1 (Savinase [1]) [%] | Residual activity at dose 2 (Savinase [1]) [%] | Inhibitor dose 1 (Savinase [1]) [mg/mL] | ((residual activity at dose 2) − (residual activity at dose 1))/((residual activity at dose 1) − (residual activity at no inhibitor)) (Savinase [1]) [%] | Inhibitor dose 2 (Savinase [1]) [mg/mL] | remaining activity at 80 µg/mL (Savinase [2]; 4 weeks 30° C. vs −18° C. reference, dose 1: Z-GA-NHCH(CH2C6H4OH)CH(OH)SO3Na 8.1 mg/L, 4-FPBA 80 mg/L, read-out: Inhibitor dose 1 (residual protease activity)) [%] | remaining activity at 160 µg/mL (Savinase [2]; 4 weeks 30° C. vs −18° C. reference, dose 2: Z-GA-NHCH(CH2C6H4OH)CH(OH)SO3Na 16.1 mg/L, 4-FPBA 160 mg/L, read-out: Inhibitor dose 2 (residual protease activity)) [%] | %-points per dose (residual protease activity) (Savinase [2]) [%] | %-points per dose (residual lipase activity) (Lipase (Lipex 100L) [3]) [%] | %-points per dose (residual protease activity) (Protease (Savinase 16L)) [%] | %-points per dose (residual lipase activity) (Lipase (Lipex 100L) [4]) [%] | %-points per dose (residual protease activity) (Liquanase) [%] | %-points per dose (residual lipase activity) (Lipase (Lipex 100L) [5]) [%]
O=Cc1ccc(B(O)O)cc1 [4-FPBA, 4-formyl-phenyl-boronic acid] | 63 | 75 | 91 | 25 | 182 | 98 | 98 | 0 | 16 |  |  |  | 
Cbz-Gly-Ala-Leu-H [Z-GAL-H] | 50 | 60 | 5.7 | 25 | 11.5 |  |  |  |  |  |  |  | 
Cbz-Gly-Ala-Phe-H [Z-GAF-H] | 75 | 90 | 18.7 | 25 | 37.5 |  |  |  |  |  |  |  | 
Z-GA-NHCH(CH2C6H4OH)CH(OH)SO3Na |  |  | 8.1 | 25 | 16.1 |  |  | 9 | 21 | 10 | 30 | 0 | 25
